{"source": "patent US20190208800A1", "about": "“L-GLUTAMINE IN SWINE DIETS” (The United States of America, as represented by the …, priority 2018, published 2019)", "key": {"[1]": {"experiment": "Example 2: nursery growth performance (d 0 to d 34 post-weaning) in a production environment", "format": "in vivo, pigs", "excerpt": "(§1) In a larger example, three groups of post-weaning and post-transport pigs (each group n=160, total of 480 pigs, 50% male and 50% female) were fed on different diets to assess the effects of L-glutamine as a supplement in the diet in a production environment. The diets consisted primarily of corn and soybean meal as in Example 1. One group (Group A) was fed a standard swine feed in two phases containing a standard antibiotic supplement (400 g chlortetracycline and 35 g tiamulin/ton of feed), another group (GLN) was fed a standard swine feed in two phases containing 0.20% L-glutamine, and a third group (NA) was given a standard swine diet in two phases containing no antibiotics or immunomodulators. Otherwise, the diets for groups A, GLN, and NA were the same. The disparate diets were given to the different groups for 14 days post-weaning and transport, following which all three groups were on a common diet for the remainder of the trial. This experiment was conducted from Jul. 28, 2016 to Sep. 21, 2017. The pigs were followed all the way through market (i.e., day 125 post-weaning, being about 6 months of age)."}, "enteric disease": {"tested_on": "enteric disease", "experiment": "Example 2: percentage of pigs treated for enteric disease (FIG. 1)", "format": "in vivo", "conditions": "0.20% L-glutamine diet; Period 1 (d 0-14) and Period 2 (d 15-34) post-weaning and transport", "excerpt": "Period 1 is 0-14 days post-weaning and transport and Period 2 is 15-34 days post-weaning and transport. Error bars represent ±1 standard error of the mean (SEM). Letters (a, b) indicate statistically significant differences (P≤0.05) between dietary treatments and symbols (*, #) indicate statistically significant differences (P≤0.05) between periods. In a larger example, three groups of post-weaning and post-transport pigs (each group n=160, total of 480 pigs, 50% male and 50% female) were fed on different diets to assess the effects of L-glutamine as a supplement in the diet in a production environment. The diets consisted primarily of corn and soybean meal as in Example 1. One group (Group A) was fed a standard swine feed in two phases containing a standard antibiotic supplement (400 g chlortetracycline and 35 g tiamulin/ton of feed), another group (GLN) was fed a standard swine feed in two phases containing 0.20% L-glutamine, and a third group (NA) was given a standard swine diet in two phases containing no antibiotics or immunomodulators. Otherwise, the diets for groups A, GLN, and NA were the same. […] Data were analyzed on a per pen basis and the assumptions of normality of error, homogeneity of variance, and linearity were confirmed post-hoc."}, "[2]": {"experiment": "Example 1: small-scale simulated transport of post-weaning pigs, 14-day diets", "format": "in vivo", "conditions": "0.20% L-glutamine diet, 14 days post-weaning and simulated transport", "excerpt": "In a small-scale example, three groups of post-weaning pigs were subjected to a simulated transport experience immediately post-weaning and then provided different diets to assess the effects of L-glutamine as a supplement in the diet. The details of the procedure are given in full in “Evaluating the behavior, growth performance, immune parameters, and intestinal morphology of weaned piglets after simulated transport and heat stress when antibiotics are eliminated from the diet or replaced with L-glutamine” by Johnson, J. S. and Lay Jr., D. C. in the Journal of Animal Science (2017, 95, 91-102), which is incorporated herein in its entirety by reference. In this experiment, the piglets were fed on disparate feeds for 14 days post-weaning and simulated transport, and then euthanized by CO2 exposure and exsanguination."}, "[3]": {"experiment": "Example 2: grow-finish growth performance (d 0 to d 125) until market", "format": "in vivo, pigs", "excerpt": "as §1, with “age).[…]” for “age).”"}, "[4]": {"tested_on": "tumor necrosis factor alpha (TNFα)", "experiment": "Example 3: tumor necrosis factor alpha in pigs' blood (FIG. 2)", "format": "in vivo", "conditions": "blood samples; diets for 14 days after weaning and 12 h transport; vs no antibiotics", "method": "Error bars represent ±1 standard error of the mean (SEM). Letters (a, b) indicate statistically significant differences (P≤0.05) between dietary treatments. In a similar experiment to the one above in Example 2, an L-glutamine-containing diet was evaluated for pigs to determine how it affected their general health and productivity. The experiment was conducted under commercial production conditions using a total of 480 mixed-sex (50% male and 50% female) pigs. Pigs were weaned and then transported for 12 hours to the nursery facility. Once pigs arrived at the nursery facility they were provided 1 of 3 separate diets, those being no antibiotics or L-glutamine (NA); 0.20% L-glutamine (GLN); or dietary antibiotics (A) for 14 days. After the 14-day period all pigs were provided the same antibiotic-free diets until they reached market weight. Blood and intestinal samples were collected from pigs to determine whole body immune function and intestinal integrity. […] Specifically, blood samples from the pigs were tested for tumor necrosis factor alpha (TNFα), a pro-inflammatory cytokine, elevated levels of which can be indicative of systemic inflammation and immune system activation which can be detrimental to the health and productivity of pigs. A reduction in circulating TNFα would be indicative of a decreased whole body inflammatory response in pigs. […]"}, "intestines": {"tested_on": "intestines", "experiment": "Example 3: ratio of villus height to crypt depth in the intestines (FIG. 3)", "format": "in vivo, pigs", "conditions": "intestinal samples; diets for 14 days after weaning and 12 h transport; compared to NA", "method": "Error bars represent ±1 standard error of the mean (SEM). Letters (x, y) indicate statistical tendencies (0.05<P≤0.10) between dietary treatments. In a similar experiment to the one above in Example 2, an L-glutamine-containing diet was evaluated for pigs to determine how it affected their general health and productivity. The experiment was conducted under commercial production conditions using a total of 480 mixed-sex (50% male and 50% female) pigs. Pigs were weaned and then transported for 12 hours to the nursery facility. Once pigs arrived at the nursery facility they were provided 1 of 3 separate diets, those being no antibiotics or L-glutamine (NA); 0.20% L-glutamine (GLN); or dietary antibiotics (A) for 14 days. After the 14-day period all pigs were provided the same antibiotic-free diets until they reached market weight. Blood and intestinal samples were collected from pigs to determine whole body immune function and intestinal integrity. […] In particular, intestinal samples from pigs were analyzed to determine the ratio of villus height to crypt depth in the intestines. Villus height to crypt depth ratio is a morphological measure of intestinal health and a greater ratio indicates an improvement in intestinal health. […] Improved intestinal health is essential for nutrient absorption and preventing pathogens from entering the body. […]"}, "[5]": {"conditions": "d 0 to 14 post-weaning, diet treatment period"}, "[6]": {"conditions": "d 0 to 34 post-weaning, overall nursery"}, "[7]": {"conditions": "d 15 to 34 post-weaning, common diet period"}}, "note": "Marks after values point to notes of the source that are not given here."}
{"smiles": "NC(=O)CC[C@H](N)C(=O)O", "note": "[GLN, L-glutamine]", "values": [{"measurement": "overall nursery phase performance", "setting": "[1]; d 0-34 post-weaning, vs antibiotic pigs", "result": "performed similarly to the antibiotic pigs"}, {"measurement": "Average daily feed intake", "setting": "[1]; [5]", "result": "272.06^a g"}, {"measurement": "Average daily gain", "setting": "[1]; [5]", "result": "210.78^a g"}, {"measurement": "Feed efficiency, gain: feed", "setting": "[1]; [5]", "result": "0.79^ab"}, {"measurement": "Average daily feed intake", "setting": "[1]; [6]", "result": "517.08^xy g"}, {"measurement": "Average daily gain", "setting": "[1]; [6]", "result": "352.73^ab g"}, {"measurement": "Feed efficiency, gain: feed", "setting": "[1]; [6]", "result": "0.71^ab"}, {"measurement": "d 14 body weight", "setting": "[1]; d 14 post-weaning", "result": "8.50^a kg"}, {"measurement": "Average daily feed intake", "setting": "[1]; [7]", "result": 680.43, "unit": "g"}, {"measurement": "Average daily gain", "setting": "[1]; [7]", "result": 447.36, "unit": "g"}, {"measurement": "Feed efficiency, gain: feed", "setting": "[1]; [7]", "result": 0.66}, {"measurement": "d 34 body weight", "setting": "[1]; d 34 post-weaning", "result": "17.49^ab kg"}, {"measurement": "feed intake, average daily gain, and final body weight compared to the non-antibiotic group", "setting": "[1]; diet treatment period, d 0-14 post-weaning", "result": "significantly higher"}, {"measurement": "requirement for injectable therapeutic antibiotics for enteric disease", "setting": "enteric disease", "result": "the same requirement for injectable therapeutic antibiotics for enteric disease as the piglets fed the antibiotics"}, {"measurement": "effectiveness in other parameters", "setting": "[2]; vs antibiotics", "result": "approximately as effective as the antibiotics"}, {"measurement": "productivity", "setting": "[2]; vs non-antibiotic and antibiotic group", "result": "better productivity compared to the non-antibiotic and antibiotic group"}, {"measurement": "growth performance of piglets through the end of the nursery phase", "setting": "[3]; body weight at start of grow-finish phase vs no antibiotic pigs", "result": "effective in improving the growth performance of piglets through the end of the nursery phase"}, {"measurement": "Feed efficiency, gain: feed", "setting": "[3]; d 0 to 62 of grow-finish phase, common diet", "result": 0.46}, {"measurement": "Feed efficiency, gain: feed", "setting": "[3]; d 0 to 125 of grow-finish phase", "result": 0.38}, {"measurement": "d 62 body weight", "setting": "[3]; d 62 of grow-finish phase", "result": 65.02, "unit": "kg"}, {"measurement": "Feed efficiency, gain: feed", "setting": "[3]; d 62 to 125 of grow-finish phase, common diet", "result": 0.31}, {"measurement": "Final body weight", "setting": "[3]; d 125, market", "result": 121.73, "unit": "kg"}, {"measurement": "Initial body weight", "setting": "[3]; start of grow-finish phase (d 0), diets given 14 days post-weaning, then common diet", "result": "17.49^a kg"}, {"measurement": "circulating TNFα", "setting": "[4]", "result": "reduced at a similar level"}, {"measurement": "villus height to crypt depth ratio", "setting": "intestines", "result": "greater"}]}
